Starred links: 1 amine or outer side, 2 acyl side, 3 side chain; linkers in the order of their positions; H or OH if unused. Positions of bridges follow the written chain, without caps; N, C: chain ends. Non-standard residues stand in square brackets, D forms with d. Residues, ends and D or L forms follow the SMILES beside them. X1 = C[C@@](CC=[*:3])(N[*:1])C(=O)[*:2]

One data set deals with Vero E6 cells. The following applies: MTT, 0.05–50 μM pep39, 48 h.
Data set [1] concerns SARS-CoV-2 spike protein RBD. It is filed as binding.

As to `CSCC[C@@H]1NC(=O)[C@H](CC(N)=O)NC(=O)[C@@H]2CC(=O)NCCCC[C@H](NC(=O)[C@H](Cc3c[nH]c4ccccc34)NC(=O)[C@@H](NC(=O)[C@H](CCCCN)NC(=O)[C@H](Cc3ccc(O)cc3)NC(=O)[C@H](CC(C)C)NC(=O)[C@H](Cc3c[nH]c4ccccc34)NC(=O)[C@H](CCC(=O)O)NC(=O)[C@@H](NC(=O)CNC(C)=O)[C@@H](C)O)C(C)C)C(=O)N[C@@H](C)C(=O)N[C@@H](Cc3ccccc3)C(=O)N[C@@](C)(C/C=C/C[C@@](C)(C(=O)O)NC1=O)C(=O)N2` [pep39] (Ac-GTEWLYKVWKAF[X1]DNM[X1]-OH; lactam 10-14; staple (E) 13-17), the “concentration at which significant inhibition of cell growth was observed” value with Vero E6 cells (P < 0.05 vs PBS) was ≥ 50 µM. Further, in the data set on Vero E6 cells (vs PBS), the “concentration above which cell growth is dose dependently inhibited” value is “higher than 0.5 μM”. Further, the “confirmation of binding to spike protein RBD” value in data set [1] was “able to confirm the binding of pep39 on the surface of the spike protein RBD”. For the same compound, in data set [1] (pH 7.4), the maximum micro-cantilever deflection is on record as 33.27 nm and the minimum micro-cantilever deflection is recorded as 8.46 nm.

Values taken from article PMC10507807, “De novo design of a stapled peptide targeting SARS-CoV-2 spike protein receptor-binding domain” (RSC Medicinal Chemistry, 2023).
